Experimental data from patent US12122778B2, “Activating pyruvate kinase R” (Novo Nordisk Health Care AG, priority 2018, dated 2024).
Read-outs that look alike come from different tables or passages of the source.

What was measured:
PKR(G332S) = PKR(G332S) (Homo sapiens, UniProt P30613, G332S); test: Luminescence Biochemical Assay (Kinase Glo Plus), PKR G332S mutant; conditions: with FBP; for activation at 1.54 µM: 1.54 μM compound, read-out: AC50 LUM KGP FBP % Fold@1.54 μM mean; for Emax: read-out: AC50 LUM KGP FBP MAX % FOLD mean
PKR(G332S), sequence (P30613 whole entry G332S): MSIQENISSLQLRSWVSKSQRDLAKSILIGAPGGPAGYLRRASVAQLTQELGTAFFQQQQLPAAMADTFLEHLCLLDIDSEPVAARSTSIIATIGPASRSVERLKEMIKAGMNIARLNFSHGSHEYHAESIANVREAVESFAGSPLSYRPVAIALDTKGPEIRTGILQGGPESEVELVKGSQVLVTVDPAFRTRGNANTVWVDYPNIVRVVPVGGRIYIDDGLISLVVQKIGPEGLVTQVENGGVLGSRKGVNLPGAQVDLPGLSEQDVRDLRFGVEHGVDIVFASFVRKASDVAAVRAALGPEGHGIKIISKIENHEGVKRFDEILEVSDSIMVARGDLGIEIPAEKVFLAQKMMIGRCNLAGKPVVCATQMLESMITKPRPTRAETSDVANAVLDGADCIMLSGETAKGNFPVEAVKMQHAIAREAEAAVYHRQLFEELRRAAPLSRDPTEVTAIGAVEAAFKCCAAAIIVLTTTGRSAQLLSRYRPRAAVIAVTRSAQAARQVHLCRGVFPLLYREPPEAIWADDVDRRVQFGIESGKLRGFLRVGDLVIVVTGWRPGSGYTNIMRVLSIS
Protocol: In some embodiments, a PKR Activating Compound can have: (1) an AC50 value of less than 0.1 μM (e.g., compounds with AC50 values of “+++” in Table 13), 0.1-1.0 μM (e.g., compounds with AC50 values of “++” in Table 13), or 1.01-40 μM (e.g., compounds with AC50 values of “+” in Table 13); (2) a MAX % Fold of 75%-250%, 250-500%, or 75%-500%; and/or (3) a % Fold@1.54 μM of 75%-250%, 250-500%, or 75%-500%. In some embodiments, a PKR Activating Compound has (1) an AC50 value of less than 1.0 μM; (2) a MAX % Fold of 75%-500%; and/or (3) a % Fold@1.54 μM of 75%-500%.
The phosphorylation of Adenosine-5′-diphosphate (ADP) by various mutants of PKR was determined by the Kinase Glo Plus Assay (Promega) in the presence or absence of FBP [D-Fructose-1,6-diphosphate; BOC Sciences, CAS: 81028-91-3] as follows. Unless otherwise indicated, all reagents were purchased from Sigma-Aldrich. All reagents were prepared in buffer containing 50 mM Tris-HCl, 100 mM KCl, 5 mM MgCl2, and 0.01% Triton X100, 0.03% BSA, and 1 mM DTT. Enzyme and PEP [Phospho(enol) pyruvic acid] were added at 2× to all wells of an assay-ready plate containing serial dilutions of test compounds or DMSO vehicle. Final enzyme concentrations for PKR(wt), PKR(R510Q), and PKR(G332S) were 0.8 nM, 0.8 nM, and 10 nM respectively. Final PEP concentration was 100 μM. The Enzyme/PEP mixture was incubated with compounds for 30 minutes at RT before the assay was initiated with the addition of 2×ADP [Adenosine-5′-diphosphate] and KinaseGloPlus. Final concentration of ADP was 100 μM. […] For assays containing FBP, that reagent is added at 30 μM upon reaction initiation. Reactions were allowed to progress for 45 minutes at RT until luminescence was recorded by the BMG PHERAstar FS Multilabel Reader. All compounds were tested in triplicate at concentrations ranging from 42.5 μM to 2.2 nM in 0.83% DMSO.
Luminescence values were converted to % Fold increase by normalizing to the average of the DMSO control and multiplying by 100. Max, min, slope and AC50 were determined by the standard four parameter fit algorithm of ActivityBase XE Runner. Compounds were evaluated with three parameters—AC50, MAX % Fold, and % Fold@1.54 μM (FIG. 1). The AC50 value for a compound is the concentration (μM) corresponding to the midway between the maximum and minimum values of the four parameter logistic curve fit (i.e., at which the % fold increase along the four parameter logistic curve fit is halfway between MAX % Fold and MIN % Fold (% Fold Midpoint)), MAX % Fold is the highest fold increase observed at any concentration of compound, and % Fold@1.54 μM is the fold increase at a compound concentration of 1.54 μM. The parameter % Fold@1.54 μM was selected to capture elements of both the AC50 and MAX % Fold and to provide a ranking based on both potency and effect. The compound concentration of 1.54 μM was chosen as one that can optimally differentiate the set of compounds based on the range of activities observed.
As set forth in Table 13 below, AC50 values (columns A, D, G) are defined as follows: ≤0.1 μM (+++); >0.1 μM and ≤1.0 μM (++); >1.0 μM and ≤40 μM (+); >40 μM (0). Max % FOLD values (columns B, E, H) are defined as follows: ≤75% (+); >75% and ≤250% (++); >250% and ≤500% (+++). % Fold@1.54 μM values (columns C, F, J) are defined as follows: ≤75% (+); >75% and ≤250% (++); >250% and ≤50000 (+++).

PKR(R510Q) = PKR(R510Q) (Homo sapiens, UniProt P30613, R510Q); test: Luminescence Biochemical Assay (Kinase Glo Plus), PKR R510Q mutant; conditions: without FBP; for activation at 1.54 µM: 1.54 μM compound, read-out: AC50 LUM KGP woFBP % Fold@1.54 μM mean; for Emax: read-out: AC50 LUM KGP woFBP MAX % FOLD mean
PKR(R510Q), sequence (P30613 whole entry R510Q): as the sequence (P30613 whole entry G332S) above, with S332G, R510Q counted along it

[1] = read-out: AC50 LUM KGP FBP AC50 μM gmean (column A)
[2] = read-out: AC50 LUM KGP woFBP AC50 μM gmean

| Structure (SMILES) | activation at 1.54 µM (PKR(G332S)) [%] | AC50 (PKR(G332S); [1]) [µM] | Emax (PKR(G332S)) [%] | activation at 1.54 µM (PKR(R510Q)) [%] | AC50 (PKR(R510Q); [2]) [µM] | Emax (PKR(R510Q)) [%] | AC50 (PKR(G332S); gmean, read-out: A - AC50 LUM KGP FBP AC50 μM gmean) [µM] | AC50 (PKR(R510Q); gmean, read-out: D - AC50 LUM KGP woFBP AC50 μM gmean) [µM] |
| --- | --- | --- | --- | --- | --- | --- | --- | --- |
| COc1ccccc1CNC(=O)N1CC2=C(C1)CN(S(=O)(=O)c1ccc3nsnc3c1)C2 [Example 20-27, 5-(2,1,3-Benzothiadiazole-5-sulfonyl)-N-[(2-methoxyphenyl)methyl]-1H,2H,3H,4H,5H,6H-pyrrolo[3,4-c]pyrrole-2-carboxamide] | 75 to 250 | 1 to 40 | 75 to 250 | 75 to 250 | 1 to 40 | 250 to 500 |  |  |
| Cc1cc(CNC(=O)N2CC3=C(C2)CN(S(=O)(=O)c2cccnc2)C3)no1 [Example 21-38, N-[(5-methyl-1,2-oxazol-3-yl)methyl]-5-(pyridine-3-sulfonyl)-1H,2H,3H,4H,5H,6H-pyrrolo[3,4-c]pyrrole-2-carboxamide] | 75 to 250 | 1 to 40 | 75 to 250 | 75 to 250 | 1 to 40 | 250 to 500 |  |  |
| Cc1cc(CNC(=O)N2CC3=C(C2)CN(S(=O)(=O)c2ccc4ncsc4c2)C3)no1 [Example 21-8, 5-(1,3-Benzothiazole-6-sulfonyl)-N-[(5-methyl-1,2-oxazol-3-yl)methyl]-1H,2H,3H,4H,5H,6H-pyrrolo[3,4-c]pyrrole-2-carboxamide] | 75 to 250 | ≤ 0.1 | 75 to 250 | 250 to 50000 | ≤ 0.1 | 250 to 500 |  |  |
| O=C(NCc1ccc(F)cc1)N1CC2=C(C1)CN(S(=O)(=O)c1cccc3cnccc13)C2 [Example 20-41, N-[(4-fluorophenyl)methyl]-5-(isoquinoline-5-sulfonyl)-1H,2H,3H,4H,5H,6H-pyrrolo[3,4-c]pyrrole-2-carboxamide] | 75 to 250 | 1 to 40 | 75 to 250 | 75 to 250 | 1 to 40 | 75 to 250 |  |  |
| C[C@@H](C(=O)N1CC2=C(C1)CN(S(=O)(=O)c1c[nH]c3c(Cl)nccc13)C2)c1ccccc1 [Example 25] |  |  |  |  |  |  | 1 to 40 | 1 to 40 |
| O=C(NCc1ccc(F)cc1)N1CC2=C(C1)CN(S(=O)(=O)c1ccc3nsnc3c1)C2 [Example 20-28, 5-(2,1,3-Benzothiadiazole-5-sulfonyl)-N-[(4-fluorophenyl)methyl]-1H,2H,3H,4H,5H,6H-pyrrolo[3,4-c]pyrrole-2-carboxamide] | 75 to 250 | 1 to 40 | 75 to 250 | 75 to 250 | 1 to 40 | 75 to 250 |  |  |
| Cc1nc(S(=O)(=O)N2CC3=C(CN(C(=O)C(C)n4cnc5ccccc54)C3)C2)cn1C (centres unmarked) [Example 19-9, 2-(1H-Benzo[d]imidazol-1-yl)-1-(5-((1,2-dimethyl-1H-imidazol-4-yl)sulfonyl)-3,4,5,6-tetrahydropyrrolo[3,4-c]pyrrol-2(1H)-yl)propan-1-one] | 75 to 250 | 0.1 to 1 | 75 to 250 | 75 to 250 | 1 to 40 | 75 to 250 |  |  |
| COc1cccc(CNC(=O)N2CC3=C(C2)CN(S(=O)(=O)c2ccc(F)cc2)C3)c1 [Example 20-4, 5-(4-Fluorobenzenesulfonyl)-N-[(3-methoxyphenyl)methyl]-1H,2H,3H,4H,5H,6H-pyrrolo[3,4-c]pyrrole-2-carboxamide] | 75 to 250 | 0.1 to 1 | 75 to 250 | 75 to 250 | 0.1 to 1 | 75 to 250 |  |  |
| COCCNC(=O)N1CC2=C(C1)CN(S(=O)(=O)c1ccc3c(c1)N(C)CCO3)C2 [Example 21-24] | 75 to 250 | 0.1 to 1 | 75 to 250 | 75 to 250 | 0.1 to 1 | 250 to 500 |  |  |
| O=C(NCc1ccc(F)cc1)N1CC2=C(C1)CN(S(=O)(=O)c1ccc3occc3c1)C2 [Example 20-23, 5-(1-Benzofuran-5-sulfonyl)-N-[(4-fluorophenyl)methyl]-1H,2H,3H,4H,5H,6H-pyrrolo[3,4-c]pyrrole-2-carboxamide] | 75 to 250 | 1 to 40 | 75 to 250 | 75 to 250 | 0.1 to 1 | 250 to 500 |  |  |
| COc1ccccc1CNC(=O)N1CC2=C(C1)CN(S(=O)(=O)c1ccc(F)cc1)C2 [Example 20-6, 5-(4-Fluorobenzenesulfonyl)-N-[(2-methoxyphenyl)methyl]-1H,2H,3H,4H,5H,6H-pyrrolo[3,4-c]pyrrole-2-carboxamide] | 75 to 250 | ≤ 0.1 | 75 to 250 | 75 to 250 | 0.1 to 1 | 250 to 500 |  |  |
| Cc1noc(C)c1S(=O)(=O)N1CC2=C(CN(C(=O)[C@H](O)c3ccccc3)C2)C1 [Example 18-44, (2R)-1-{5-[(dimethyl-1,2-oxazol-4-yl)sulfonyl]-1H,2H,3H,4H,5H,6H-pyrrolo[3,4-c]pyrrol-2-yl}-2-hydroxy-2-phenylethan-1-one] | 75 to 250 | 1 to 40 | 75 to 250 | 75 to 250 | 1 to 40 | 75 to 250 |  |  |
| O=C(NCc1cnco1)N1CC2=C(C1)CN(S(=O)(=O)c1ccc(F)cc1)C2 [Example 5-1, 5-(4-Fluorophenylsulfonyl)-N-(oxazol-5-ylmethyl)-3,4,5,6-tetrahydropyrrolo[3,4-c]pyrrole-2(1H)-carboxamide] | 75 to 250 | 0.1 to 1 | 75 to 250 | 75 to 250 | 1 to 40 | 75 to 250 |  |  |
| COc1cccc(CNC(=O)N2CC3=C(C2)CN(S(=O)(=O)c2ccc4nsnc4c2)C3)c1 [Example 20-25, 5-(2,1,3-Benzothiadiazole-5-sulfonyl)-N-[(3-methoxyphenyl)methyl]-1H,2H,3H,4H,5H,6H-pyrrolo-[3,4-c]pyrrole-2-carboxamide] | 75 to 250 | 0.1 to 1 | 75 to 250 | 75 to 250 | 1 to 40 | 75 to 250 |  |  |
| COc1cccc(CNC(=O)N2CC3=C(C2)CN(S(=O)(=O)c2cccc(F)c2)C3)c1 [Example 20-8, 5-(3-Fluorobenzenesulfonyl)-N-[(3-methoxyphenyl)methyl]-1H,2H,3H,4H,5H,6H-pyrrolo[3,4-c]pyrrole-2-carboxamide] | 75 to 250 | 1 to 40 | 75 to 250 | 75 to 250 | 0.1 to 1 | 75 to 250 |  |  |
| CN1CCOc2ccc(S(=O)(=O)N3CC4=C(CN(C(=O)NCc5ccc(F)cc5)C4)C3)cc21 [Example 21-26, N-[(4-fluorophenyl)methyl]-5-[(4-methyl-3,4-dihydro-2H-1,4-benzoxazin-6-yl)sulfonyl]-1H,2H,3H,4H,5H,6H-pyrrolo[3,4-c]pyrrole-2-carboxamide] | 75 to 250 | 1 to 40 | 75 to 250 | 75 to 250 | 0.1 to 1 | 75 to 250 |  |  |
